Laboratory results reported in PubChem BioAssay AID2060494 (Molecular Pharmacology Branch, DTP, NCI, 2025).

Tested on: 435261-313-R-J1-PDC complex spheroid viability
Assay: Anticancer human tumor 435261-313-R-J1-PDC patient-derived colon adenocarcinoma cell line growth inhibition [GQUAD]
Settings: for IC50: curve of first compound; for viability, T/C: stronger effect = lower value; active = viability on the fitted dose curve at most 10% of control; inactive = the rest
Text: DNA G-quadruplex Stabilizer Agents in Combinations in Complex Spheroids
A high-throughput screen of multi-cell type tumor spheroids was designed to identify active combinations of DNA G-quadruplex stabilizer agents and targeted small molecules. Complex spheroids include a stromal component modeled by human endothelial cells (HUVEC) and fibroblasts modeled by human mesenchymal stem cells (MSCs). The concentration ranges selected for each drug and investigational agent were based upon clinically achievable concentrations if the clinical Cmax of the agent was known.
Compounds. The drugs and investigational agents: pidnarulex (CX-5461; NSC782164), APTO-253 (NSC789042), BRACO-19 (NSC847499), peposertib (NSC802822), ceralasertib (NSC780249), elimusertib (NSC800525), camonsertib (NSC841442), AZD-1390 (NSC803789), olaparib (NSC753686), talazoparib (NSC767125), ART-558 (NSC835418), sotorasib (NSC818433), MRTX-1133 (NSC836407), SN-38 (NSC673596), topotecan (NSC609699), etoposide (NSC141540), doxorubicin (NSC123127), gemcitabine (NSC613327), 5-fluorouracil (NSC19893), paclitaxel (NSC125973), vemurafenib (NSC761431), panobinostat (NSC761190), R-306465 (JNJ-16241199; NSC773264), adavosertib (NSC754352), TP-3654 (NSC805149), carboplatin (NSC241240), KSQ-4279 (NSC840948), and staurosporine (NSC755774) were obtained from the National Cancer Institute (NCI) Developmental Therapeutics Program Chemical Repository (34). The FDA-approved anticancer drug set is available from the NCI Developmental Therapeutics Program. […] The stock solutions were prepared in dimethyl sulfoxide (DMSO, Sigma-Aldrich, St. Louis, MO, cat. D2650) at 800-fold the tested concentration and stored at -70 degrees C prior to their use. All drugs and investigational agents were tested over a range starting from a high concentration at or near the clinical Cmax and decreasing in half-log increments. If the clinical Cmax for an agent had not been determined, the highest concentration tested was 10 microM.
2.3 Cell Culture. All cells were maintained in an incubator at 37 degrees C and 5% CO2 with 95% humidity. The PDC lines were cultured according to standard operating procedures established by the NCI PDMR. All PDCs were thawed and cultured in Matrigel-coated flasks prepared with a working solution of 1X Ham's F-12 nutrient mix, without supplementation (Invitrogen, cat. 11765054), 100 U/mL penicillin-streptomycin (Invitrogen, cat. 15140122), and 2.5% Matrigel (Corning Inc., cat. 354248) for the first three passages. The 857933-349-R-J2-PDC line was cultured in 6C/Colon 1B media, which includes advanced DMEM/F-12 (Thermo Fisher Scientific, cat. 12634028), 10 mM HEPES (Thermo Fisher Scientific, cat. 15630080), 1X GlutaMAX supplement (Thermo Fisher Scientific, cat. 35050061), 0.1 mg/mL primocin (InvivoGen, cat. ant-pm-2), 10% defined fetal bovine serum, heat inactivated (HyClone Laboratories Inc., cat. SH30070.03HI), 50% L-WRN conditioned media (ATCC, cat. CRL-3276), 1.25 mM N-Acetyl-L-cysteine (Sigma-Aldrich, cat. A9165), 10 mM nicotinamide (Sigma-Aldrich, cat. N0636), 1X B-27 supplement (Thermo Fisher Scientific, cat. 17504044), 1X N-2 supplement (Thermo Fisher Scientific, cat. 17502048), 10 microM Y-27632 dihydrochloride (Tocris Bioscience, cat. 1254), and 50 ng/mL human EGF recombinant protein (Thermo Fisher Scientific, cat. PHG0311). The 485176-168-R4-J1-PDC line was cultured in Panc media, which includes all 6C/Colon 1B media components plus 100 ng/mL human FGF-10 (Thermo Fisher Scientific, cat. 100-26), 500 nM SB-431542 (Selleckchem, cat. S1067), and gastrin (Tocris, cat. 3006).
[…]

[1] = second compound 0.0316 µM, first compound 0.0316 µM
[2] = second compound 0.0316 µM, first compound 0.1 µM
[3] = second compound 0.0316 µM, first compound 0.316 µM
[4] = second compound 0.0316 µM, first compound 1 µM
[5] = second compound 0.0316 µM, first compound 3.16 µM
[6] = second compound 0.0316 µM, first compound 10 µM
[7] = second compound 0.1 µM, first compound 0.0316 µM
[8] = second compound 0.1 µM, first compound 0.1 µM
[9] = second compound 0.1 µM, first compound 0.316 µM
[10] = second compound 0.1 µM, first compound 1 µM
[11] = second compound 0.1 µM, first compound 3.16 µM
[12] = second compound 0.1 µM, first compound 10 µM
[13] = second compound 0.316 µM, first compound 0.0316 µM
[14] = second compound 0.316 µM, first compound 0.1 µM
[15] = second compound 0.316 µM, first compound 0.316 µM
[16] = second compound 0.316 µM, first compound 1 µM
[17] = second compound 0.316 µM, first compound 3.16 µM
[18] = second compound 0.316 µM, first compound 10 µM
[19] = second compound 1 µM, first compound 0.0316 µM
[20] = second compound 1 µM, first compound 0.1 µM
[21] = second compound 1 µM, first compound 0.316 µM
[22] = second compound 1 µM, first compound 1 µM
[23] = second compound 1 µM, first compound 3.16 µM
[24] = second compound 1 µM, first compound 10 µM
[25] = second compound 3.16 µM, first compound 0.0316 µM
[26] = second compound 3.16 µM, first compound 0.1 µM
[27] = second compound 3.16 µM, first compound 0.316 µM
[28] = second compound 3.16 µM, first compound 1 µM
[29] = second compound 3.16 µM, first compound 3.16 µM
[30] = second compound 3.16 µM, first compound 10 µM
[31] = second compound 10 µM, first compound 0.0316 µM
[32] = second compound 10 µM, first compound 0.1 µM
[33] = second compound 10 µM, first compound 0.316 µM
[34] = second compound 10 µM, first compound 1 µM
[35] = second compound 10 µM, first compound 3.16 µM
[36] = second compound 10 µM, first compound 10 µM
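Also: spheroids exposed to the agents for seven days before readout.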
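For viability, T/C in this document: percent of vehicle control viability with DMSO wells as 100%.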

C#Cc1c(F)ccc2cc(O)cc(-c3ncc4c(N5CC6CCC(C5)N6)nc(OCC56CCCN5CC(F)C6)nc4c3F)c12 (centres undefined) + Cc1cnc(CNC(=O)c2c(=O)c3ccc(N4CCCN(C)CC4)nc3n3c2sc2ccccc23)cn1
inactive: viability, T/C [1] 74.5% | viability, T/C [2] 61% | viability, T/C [3] 71.5% | viability, T/C [4] 50.5% | viability, T/C [5] 45.9% | viability, T/C [6] 34.7% | viability, T/C [7] 59.5% | viability, T/C [8] 62.2% | viability, T/C [9] 49.8% | viability, T/C [10] 36.6% | viability, T/C [11] 43.1% | viability, T/C [12] 29.6% | viability, T/C [13] 53% | viability, T/C [14] 59.6% | viability, T/C [15] 55.4% | viability, T/C [16] 37.8% | viability, T/C [17] 34.8% | viability, T/C [18] 30.5% | viability, T/C [19] 37.4% | viability, T/C [20] 34.4% | viability, T/C [21] 34.1% | viability, T/C [22] 34.3% | viability, T/C [23] 30% | viability, T/C [24] 17.1%
448 nM: IC50 (second compound 0.316 µM)
active: viability, T/C [25] 0.16% | viability, T/C [26] 6.4% | viability, T/C [27] 0.17% | viability, T/C [28] 6.39% | viability, T/C [29] 0.17% | viability, T/C [30] 0.15% | viability, T/C [31] 0.12% | viability, T/C [32] 0.14% | viability, T/C [33] 0.16% | viability, T/C [34] 0.16% | viability, T/C [35] 0.22% | viability, T/C [36] 0.18%
341 nM: IC50 (second compound 0.1 µM)
< 31.6 nM: IC50 (second compound 1 µM) | IC50 (second compound 3.16 µM) | IC50 (second compound 10 µM)
1840 nM: IC50 (second compound 0.0316 µM)

C=CC(=O)N1CCN(c2nc(=O)n(-c3c(C)ccnc3C(C)C)c3nc(-c4c(O)cccc4F)c(F)cc23)C(C)C1 (centres undefined) + Cc1cnc(CNC(=O)c2c(=O)c3ccc(N4CCCN(C)CC4)nc3n3c2sc2ccccc23)cn1
active: viability, T/C [31] 0.21% | viability, T/C [32] 0.22% | viability, T/C [33] 0.17% | viability, T/C [34] 0.25% | viability, T/C [35] 0.22% | viability, T/C [36] 0.16%
> 10000 nM: IC50 (second compound 0.0316 µM) | IC50 (second compound 0.1 µM) | IC50 (second compound 0.316 µM)
inactive: viability, T/C [1] 76.1% | viability, T/C [2] 59.5% | viability, T/C [3] 86.8% | viability, T/C [4] 68.1% | viability, T/C [5] 98.3% | viability, T/C [6] 67.4% | viability, T/C [7] 47.9% | viability, T/C [8] 63.3% | viability, T/C [9] 56.6% | viability, T/C [10] 63.3% | viability, T/C [11] 63.8% | viability, T/C [12] 65.7% | viability, T/C [13] 56.4% | viability, T/C [14] 59.3% | viability, T/C [15] 60% | viability, T/C [16] 52% | viability, T/C [17] 71.1% | viability, T/C [18] 65.1% | viability, T/C [19] 37.4% | viability, T/C [20] 39.1% | viability, T/C [21] 48% | viability, T/C [22] 47.5% | viability, T/C [23] 48.8% | viability, T/C [24] 47.9% | viability, T/C [25] 19.2% | viability, T/C [26] 21.6% | viability, T/C [27] 24.2% | viability, T/C [28] 29.7% | viability, T/C [29] 23.5% | viability, T/C [30] 14.3%
< 31.6 nM: IC50 (second compound 1 µM) | IC50 (second compound 3.16 µM) | IC50 (second compound 10 µM)
